Values quoted from earlier work as cited in US7371422B2, “Cereal grain kernels fortified with iron and calcium” (The Procter & Gamble Company, priority 2003, dated 2008).

Details: in adult college students (Bovell-Benjamin et al. 1999); relative to ferrous sulfate

SMILES: NCC(=O)[O-].NCC(=O)[O-].[Fe+2] [Ferrous bis-glycinate, ferrous bis-glycinate]
- absorbed ... times better than ferrous sulfate: 4.7 times
